Measured values published in patent US6969702B2, “Compounds and methods for increasing neurogenesis” (priority 2002, dated 2005).
Read-outs that look alike come from different tables or passages of the source. Marks after values point to notes of the source that are not given here. Bridge positions count the residues as written; N and C are the ends. Square brackets hold non-standard residues; d marks the D form. Ends that are not written are not given here. Peptide text beside a SMILES is read from it. pGlu = O=C1CC[C@@H](C(=O)O)N1

Tests used:
[1] = system: mouse adult neural stem cells; conditions: 0.1 µM
[2] = system: cAMP activation in mouse adult neural stem cells
Adult neural stem cells [3] = conditions: 0.1 µM
Adult neural stem cells [4] = assay: Flow cytometry for early neuronal marker Doublecortin; conditions: for Fold Induction (Doublecortin-positive cells): vs EGF/FGF
[5] = system: cAMP activation in mouse adult neural stem cells; assay: cAMP detection (HitHunter EFC Cyclic AMP Chemiluminescence Assay); conditions: Table 2; for Fold Induction cAMP: vs vehicle
[6] = system: mouse adult neural stem cells; assay: ATP-assay: proliferation (ATP levels) of neurosphere-derived cells
[7] = system: NFAT-Luciferace reporter (Ca^2+); conditions: for NFAT Luciferace units: 24 hours after induction
[8] = system: CREB phosphorylation in mouse adult neural stem cells; assay type: cell-based; conditions: 100 nM; mouse adult neural stem cells; time course 15 minutes to 8 hours
[9] = system: CREB phosphorylation in human adult neural stem cells; assay type: cell-based; conditions: 100 nM; human adult neural stem cells; time course 15 minutes to 8 hours
[10] = Table 2, 10 nM, 4 days, vs vehicle

CC[C@H](C)[C@H](NC(=O)[C@H](CCC(N)=O)NC(=O)[C@H](Cc1c[nH]cn1)NC(=O)[C@H](C)NC(=O)[C@H](CC(C)C)NC(=O)[C@H](CCCCN)NC(=O)[C@H](CCC(N)=O)NC(=O)[C@@H](NC(=O)[C@@H](N)[C@@H](C)O)C(C)C)C(=O)N[C@@H](Cc1ccc(O)cc1)C(=O)N[C@@H](CCC(N)=O)C(=O)N[C@@H](Cc1ccccc1)C(=O)N[C@H](C(=O)N[C@@H](CC(=O)O)C(=O)N[C@@H](CCCCN)C(=O)N[C@@H](CC(=O)O)C(=O)N[C@@H](CCCCN)C(=O)N[C@@H](CC(=O)O)C(=O)N[C@@H](CC(N)=O)C(=O)N[C@H](C(=O)N[C@@H](C)C(=O)N1CCC[C@H]1C(=O)N[C@@H](CCCNC(=N)N)C(=O)N[C@@H](CO)C(=O)N[C@@H](CCCCN)C(=O)N[C@H](C(=O)N[C@@H](CO)C(=O)N1CCC[C@H]1C(=O)N[C@@H](CCC(N)=O)C(=O)NCC(=O)N[C@@H](Cc1ccc(O)cc1)C(N)=O)[C@@H](C)CC)C(C)C)[C@@H](C)O [Adrenomedullin (22-52)]
Fold Induction ATP [1]: 1.6** fold
Fold Induction cAMP ([2]; 0.1 µM): 1.6* fold
Fold Induction (Doublecortin-positive cells) (Adult neural stem cells [3]): 0.8 fold
% Doublecortin-positive cells (Adult neural stem cells [4]): 2.0%
cAMP (pmol/well) ([5]; 100 nM (cAMP concentration)): 0.34 ± 0.07 pmol/well
ATP (nM ATP/well) ([6]; Table 2, 100 nM, 4 days): 12.3 ± 1.1 nM ATP/well

CC[C@H](C)[C@H](NC(=O)[C@H](CCC(N)=O)NC(=O)[C@H](Cc1c[nH]cn1)NC(=O)[C@H](C)NC(=O)[C@H](CC(C)C)NC(=O)[C@H](CCCCN)NC(=O)[C@H](CCC(N)=O)NC(=O)[C@@H](NC(=O)[C@@H](NC(=O)[C@@H]1CSSC[C@H](NC(=O)CNC(=O)[C@H](Cc2ccccc2)NC(=O)[C@H](CO)NC(=O)[C@H](CCCNC(=N)N)NC(=O)[C@H](CC(C)C)NC(=O)CNC(=O)[C@H](CCC(N)=O)NC(=O)[C@H](Cc2ccccc2)NC(=O)[C@H](CC(N)=O)NC(=O)[C@H](CC(N)=O)NC(=O)[C@H](CCSC)NC(=O)[C@H](CO)NC(=O)[C@H](CCC(N)=O)NC(=O)[C@H](CCCNC(=N)N)NC(=O)[C@@H](N)Cc2ccc(O)cc2)C(=O)N[C@@H](CCCNC(=N)N)C(=O)N[C@@H](Cc2ccccc2)C(=O)NCC(=O)N[C@@H]([C@@H](C)O)C(=O)N1)[C@@H](C)O)C(C)C)C(=O)N[C@@H](Cc1ccc(O)cc1)C(=O)N[C@@H](CCC(N)=O)C(=O)N[C@@H](Cc1ccccc1)C(=O)N[C@H](C(=O)N[C@@H](CC(=O)O)C(=O)N[C@@H](CCCCN)C(=O)N[C@@H](CC(=O)O)C(=O)N[C@@H](CCCCN)C(=O)N[C@@H](CC(=O)O)C(=O)N[C@@H](CC(N)=O)C(=O)N[C@H](C(=O)N[C@@H](C)C(=O)N1CCC[C@H]1C(=O)N[C@@H](CCCNC(=N)N)C(=O)N[C@@H](CO)C(=O)N[C@@H](CCCCN)C(=O)N[C@H](C(=O)N[C@@H](CO)C(=O)N1CCC[C@H]1C(=O)N[C@@H](CCC(N)=O)C(=O)NCC(=O)N[C@@H](Cc1ccc(O)cc1)C(N)=O)[C@@H](C)CC)C(C)C)[C@@H](C)O [Adrenomedullin (human)]
Fold Induction ATP [1]: 1.1* fold
Fold Induction cAMP ([2]; 0.1 µM): 2.5** fold
Fold Induction NFAT ([7]; 0.1 µM): 2.2** fold
NFAT Luciferace units ([7]; Table 4, 100 nM): 12.4 ± 0.9 Luciferace units
Fold Induction (Doublecortin-positive cells) (Adult neural stem cells [3]): 1.6 fold
% Doublecortin-positive cells (Adult neural stem cells [4]; Table 6, 100 nM, 4 days): 4.2%
cAMP (pmol/well) ([5]; 100 nM (cAMP concentration)): 0.15 ± 0.3 pmol/well
ATP (nM ATP/well) ([6]; Table 2, 100 nM, 4 days): 11.6 ± 0.8 nM ATP/well
ATP (nM ATP/well) ([6]; Table 4, 100 nM): 11.6 ± 0.8 nM ATP/well

CC[C@H](C)[C@H](NC(=O)[C@H](Cc1ccccc1)NC(=O)[C@H](C)NC(=O)[C@H](CC(=O)O)NC(=O)[C@H](CCCCN)NC(=O)[C@H](CO)NC(=O)[C@@H]1CCCN1C(=O)[C@@H]1CCC(=O)N1)C(=O)NCC(=O)N[C@@H](CC(C)C)C(=O)N[C@@H](CCSC)C(N)=O [Eledoisin] ([pGlu]PSKDAFIGLM-NH2)
Fold Induction ATP ([1]; mouse): 1.2* fold
Fold Induction cAMP ([2]; mouse, 0.001 µM): 1.2* (1 nM) fold
Fold Induction (Doublecortin-positive cells) (Adult neural stem cells [3]; mouse): 1.7 fold
% Doublecortin-positive cells (Adult neural stem cells [4]; Table 6, 100 nM, 4 days): 4.3%
cAMP (pmol/well) ([5]; 1 nM (cAMP concentration)): 1.0 ± 0.06 pmol/well
ATP (nM ATP/well) ([6]; Table 2, 100 nM, 4 days): 10.4 ± 1.1 nM ATP/well

CC[C@H](C)[C@H](NC(=O)[C@H](CC(=O)O)NC(=O)[C@H](CC(C)C)NC(=O)[C@H](Cc1cnc[nH]1)NC(=O)[C@@H]1CSSC[C@H](N)C(=O)N[C@@H](CO)C(=O)N[C@H]2CSSC[C@H](NC(=O)[C@H](CCC(=O)O)NC(=O)[C@H](CCCCN)NC(=O)[C@H](CC(=O)O)NC(=O)[C@H](CCSC)NC(=O)[C@H](CC(C)C)NC(=O)[C@H](CO)NC(=O)[C@H](CO)NC2=O)C(=O)N[C@@H](C(C)C)C(=O)N[C@@H](Cc2ccc(O)cc2)C(=O)N[C@@H](Cc2ccccc2)C(=O)N1)C(=O)N[C@H](C(=O)N[C@@H](Cc1c[nH]c2ccccc12)C(=O)O)[C@@H](C)CC [Endothelin-1 (human, porcine)]
NFAT Luciferace units ([7]; Table 4, 10 nM): 13.3 ± 1.3 Luciferace units
Fold Induction NFAT ([7]; Table 4, 10 nM, vs vehicle): 1.6** fold
% Doublecortin-positive cells (Adult neural stem cells [4]; Table 6, 10 nM, 4 days): 5.0%
Fold Induction (Doublecortin-positive cells) (Adult neural stem cells [4]; Table 6, 10 nM): 2.0 fold
cAMP (pmol/well) ([5]; 10 nM (cAMP concentration)): 3.64 ± 1.13 pmol/well
Fold Induction cAMP ([5]; 10 nM): 2.0* fold
ATP (nM ATP/well) ([6]; Table 2, 10 nM, 4 days): 41.7 ± 7.2 nM ATP/well
Fold Induction ATP [6, 10]: 2.5* fold
ATP (nM ATP/well) ([6]; Table 4; 10 nM; Porcine,)): 35.3 ± 3.7 nM ATP/well
Fold Induction ATP ([6]; Table 4; 10 nM; vs vehicle; Porcine,), 0.01 µM): 1.3* fold

CC[C@H](C)[C@H](NC(=O)CNC(=O)[C@H](CC(=O)O)NC(=O)[C@H](CO)NC(=O)[C@@H](N)Cc1cnc[nH]1)C(=O)N[C@@H](Cc1ccccc1)C(=O)N[C@H](C(=O)N[C@@H](CC(=O)O)C(=O)N[C@@H](CO)C(=O)N[C@@H](Cc1ccc(O)cc1)C(=O)N[C@@H](CO)C(=O)N[C@@H](CCCNC(=N)N)C(=O)N[C@@H](Cc1ccc(O)cc1)C(=O)N[C@@H](CCCNC(=N)N)C(=O)N[C@@H](CCCCN)C(=O)N[C@@H](CCC(N)=O)C(=O)N[C@@H](CCSC)C(=O)N[C@@H](C)C(=O)N[C@H](C(=O)N[C@@H](CCCCN)C(=O)N[C@@H](CCCCN)C(=O)N[C@@H](Cc1ccc(O)cc1)C(=O)N[C@@H](CC(C)C)C(=O)N[C@@H](C)C(=O)N[C@@H](C)C(=O)N[C@H](C(=O)N[C@@H](CC(C)C)C(=O)NCC(=O)N[C@@H](CCCCN)C(=O)N[C@@H](CCCNC(=N)N)C(=O)N[C@@H](Cc1ccc(O)cc1)C(=O)N[C@@H](CCCCN)C(=O)N[C@@H](CCC(N)=O)C(=O)N[C@@H](CCCNC(=N)N)C(=O)N[C@H](C(=O)N[C@@H](CCCCN)C(=O)N[C@@H](CC(N)=O)C(=O)N[C@@H](CCCCN)C(N)=O)C(C)C)C(C)C)C(C)C)[C@@H](C)O [PACAP-38]
NFAT Luciferace units ([7]; Table 4, 10 nM): 6.2 ± 1.6 Luciferace units
Fold Induction NFAT ([7]; Table 4, 10 nM, vs vehicle): 1.7* fold
% Doublecortin-positive cells (Adult neural stem cells [4]; Table 6, 100 nM, 4 days): 5.2%
Fold Induction (Doublecortin-positive cells) (Adult neural stem cells [4]; Table 6, 100 nM): 2.0 fold
cAMP (pmol/well) ([5]; 100 nM (cAMP concentration)): 0.13 ± 0.03 pmol/well
Fold Induction cAMP ([5]; 100 nM): 4.2** fold
ATP (nM ATP/well) ([6]; Table 2, 100 nM, 4 days): 26.9 ± 3.7 nM ATP/well
Fold Induction ATP ([6]; Table 2, 100 nM, 4 days, vs vehicle): 2.9** fold
ATP (nM ATP/well) ([6]; Table 4, 10 nM): 22.0 ± 0.9 nM ATP/well
Fold Induction ATP ([6]; Table 4, 10 nM, vs vehicle): 2.3*** fold

CC[C@H](C)[C@H](NC(=O)[C@@H](NC(=O)[C@H](CC(=O)O)NC(=O)[C@H](CCC(N)=O)NC(=O)[C@H](Cc1c[nH]cn1)NC(=O)[C@@H]1CSSC[C@H](N)C(=O)N[C@@H](CO)C(=O)N[C@H]2CSSC[C@H](NC(=O)[C@H](CCC(=O)O)NC(=O)[C@H](CCCCN)NC(=O)[C@H](CC(=O)O)NC(=O)[C@H]([C@@H](C)O)NC(=O)[C@H](CCSC)NC(=O)[C@H](CC(=O)O)NC(=O)[C@H](CCCCN)NC2=O)C(=O)N[C@@H](CC(C)C)C(=O)N[C@@H](CC(N)=O)C(=O)N[C@@H](Cc2ccccc2)C(=O)N1)C(C)C)C(=O)N[C@@H](Cc1c[nH]c2ccccc12)C(=O)O [Sarafotoxin S6a] (H-CSCKDMTDKECLNFCHQDVIW-OH; disulfide 1-15, 3-11; N-terminus and C-terminus assumed)
NFAT Luciferace units ([7]; Table 4, 1 nM): 6.3 ± 2.4 Luciferace units
Fold Induction NFAT ([7]; Table 4, 1 nM, vs vehicle): 3.4* fold
% Doublecortin-positive cells (Adult neural stem cells [4]; Table 6, 100 nM, 4 days): 3.2%
Fold Induction (Doublecortin-positive cells) (Adult neural stem cells [4]; Table 6, 100 nM): 1.3 fold
cAMP (pmol/well) ([5]; 10 nM (cAMP concentration)): 0.41 ± 0.06 pmol/well
Fold Induction cAMP ([5]; 10 nM): 1.4* fold
ATP (nM ATP/well) ([6]; Table 2, 10 nM, 4 days): 43.3 ± 4.5 nM ATP/well
Fold Induction ATP [6, 10]: 3.5*** fold
ATP (nM ATP/well) ([6]; Table 4, 1 nM): 38.9 ± 3.2 nM ATP/well
Fold Induction ATP ([6]; Table 4, 1 nM, vs vehicle): 3.1*** fold

CC1(C)SSC(C)(C)[C@@H](NC(=O)[C@@H](N)Cc2ccc(O)cc2)C(=O)NCC(=O)N[C@@H](Cc2ccccc2)C(=O)N[C@H]1C(=O)O [[D-Pen2-5]-Enkephalin]
NFAT Luciferace units ([7]; Table 4, 100 nM): 10.3 ± 2.1 Luciferace units
Fold Induction NFAT ([7]; Table 4, 100 nM, vs vehicle): 1.8* fold
% Doublecortin-positive cells (Adult neural stem cells [4]; Table 6, 100 nM, 4 days): 3.3%
Fold Induction (Doublecortin-positive cells) (Adult neural stem cells [4]; Table 6, 100 nM): 1.3 fold
cAMP (pmol/well) ([5]; 10 nM (cAMP concentration)): 0.06 ± 0.01 pmol/well
Fold Induction cAMP ([5]; 10 nM): 1.7* fold
ATP (nM ATP/well) ([6]; Table 2, 10 nM, 4 days): 10.7 ± 0.9 nM ATP/well
Fold Induction ATP [6, 10]: 1.2** fold
ATP (nM ATP/well) ([6]; Table 4, 10 nM): 10.7 ± 0.9 nM ATP/well
Fold Induction ATP ([6]; Table 4, 10 nM, vs vehicle): 1.2* fold

PACAP: pituitary adengate cyclase activating peptide, cAMP activator (HSDGIFTDSYSRYRKQMAVKKYLAAVLGKRYKQRVKNK; ends and bridges not checked; UniProt P18509 132-169, looked up)
CREB phosphorylation [8]: up-regulation of CREB phosphorylation
CREB phosphorylation [9]: up-regulation of CREB phosphorylation
